Values of other authors in patent US20240285562A1, “USE OF (S)-3-AMINO-4-(DIFLUOROMETHYLENYL) CYCLOPENT-1-ENE-1-CARBOXYLIC ACID IN THE TREATMENT OF MULTIPLE SCLEROSIS” (Ovid Therapeutics Inc., priority 2023, published 2024).
pIC50, pKi: −log10 of the molar value.

Experiments:
[1] = target: alanine amidotransferase (Ala-AT)
[2] = target: T1, OAT (Homo sapiens, UniProt P04181)
T1 sequence (P04181 36-439 limits assumed): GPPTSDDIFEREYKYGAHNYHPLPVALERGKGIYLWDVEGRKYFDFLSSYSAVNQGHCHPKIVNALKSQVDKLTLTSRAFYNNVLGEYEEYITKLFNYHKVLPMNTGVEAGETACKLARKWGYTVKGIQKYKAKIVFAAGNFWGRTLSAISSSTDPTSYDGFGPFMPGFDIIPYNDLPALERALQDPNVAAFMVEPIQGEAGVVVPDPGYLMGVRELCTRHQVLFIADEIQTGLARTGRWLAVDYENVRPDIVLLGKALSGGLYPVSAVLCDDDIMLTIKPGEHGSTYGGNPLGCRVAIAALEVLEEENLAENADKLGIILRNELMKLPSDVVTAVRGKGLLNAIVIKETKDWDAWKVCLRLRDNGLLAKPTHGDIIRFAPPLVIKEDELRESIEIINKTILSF

[3] = target: aspartate aminotransferase (Asp-AT)
[4] = system: autoimmune response in EAE; settings: oral or parenteral administration, murine EAE

**Q.** Which results are given for `N[C@H]1C=C(C(=O)O)CC1=C(F)F` [(S)-3-amino-4-(difluoromethylenyl)cyclopent-1-ene-1-carboxylic acid]?
**A.** pIC50 ([1]; reversible inhibition): < 2.40; times more efficient an inactivator of OAT than CPP-115 ([2]; ratio of kinact/KI versus CPP-115): 9.0 times; pIC50 ([3]; reversible inhibition): < 2.40

**Q.** With `N[C@H]1C[C@@H](C(=O)O)CC1=C(F)F` [CPP-115, (1S,3S)-3-amino+difluoromethylenyl-1-cyclopentanoic acid, reference compound] as the molecule, how does the “inactivation or inhibition of off-target enzyme” value [1] read?
**A.** not to inactivate or inhibit

**Q.** And the pKi ([2]; OAT inactivation)?
**A.** 3.94

**Q.** What about the “inactivation or inhibition of off-target enzyme” value [3] of the same molecule?
**A.** not to inactivate or inhibit

**Q.** Which “reduction of the damaging autoimmune response” value [4] does the source give for `NCCCC(=O)O` [GABA, gamma-aminobutyric acid] here?
**A.** ineffective
